PubChem BioAssay (NCI)
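Cells were grown in 96-well plates and exposed to each compound for 48 hours at five concentrations; endpoints were interpolated linearly between bracketing concentrations, or set to the highest concentration if not reached. Abbreviation: GI50, concentration required for 50% inhibition of growth. TGI: total growth inhibition.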

Experiments:
Assay in all cases: NCI tumour cell line growth inhibition, 48 h
[1] = tested on: NCI-H460 lung
[2] = tested on: M14 melanoma
[3] = tested on: OVCAR-4 ovarian
[4] = tested on: SK-MEL-5 melanoma
[5] = tested on: OVCAR-5 ovarian
[6] = tested on: RXF 393 renal
[7] = tested on: TK-10 renal
[8] = tested on: ACHN renal
[9] = tested on: MALME-3M melanoma
[10] = tested on: SF-539 CNS

SMILES	TGI [1] [µM]	TGI [2] [µM]	TGI [3] [µM]	TGI [4] [µM]	TGI [5] [µM]	TGI [6] [µM]	TGI [7] [µM]	TGI [8] [µM]	GI50 [1] [µM]	GI50 [2] [µM]	GI50 [3] [µM]	GI50 [9] [µM]	TGI [9] [µM]	GI50 [4] [µM]	GI50 [5] [µM]	GI50 [6] [µM]	GI50 [10] [µM]	TGI [10] [µM]	GI50 [7] [µM]	GI50 [8] [µM]
COc1ccc2c(c1)CC[C@@H]1[C@@H]2CC[C@]2(C)C(=O)/C(=C/c3ccc(O)c(OC)c3)C[C@@H]12	> 100	> 100	> 100	> 100	> 100	> 100	> 100	> 100	–	–	–	–	–	–	–	–	–	–	–	–
COc1ccc2nc3ccccc3c(NCc3ccc(C)cc3)c2c1	4.15	3.61	6.51	3.19	6.02	2.83	4.15	3.03	1.97	1.69	2.25	1.81	3.29	1.77	2.1	1.32	1.68	3.18	1.97	1.58
C[C@]12CCC(=O)C=C1CC[C@@H]1[C@@H]2[C@@H](O)C[C@@]2(C)[C@H]1CC[C@]2(O)C(=O)COC(=O)C1CCCC1	> 100	> 100	> 100	> 100	> 100	> 100	> 100	> 100	–	–	–	–	> 100	–	–	–	–	> 100	–	–
C[N+](C)(CCO)CCN1c2ccccc2Sc2ccccc21	> 10	> 10	> 10	> 10	> 10	> 10	> 10	> 10	–	–	–	–	> 10	–	–	–	–	> 10	–	–
Cc1ccc(SSCCCCCS(=O)O)cc1	> 100	> 100	> 100	–	> 100	43.3	75.4	> 100	–	–	–	–	> 100	–	–	–	–	30.3	–	–
Nc1nc(=O)n(CC(O)CO)s1 (stereo unspecified)	> 100	> 100	> 100	> 100	> 100	> 100	> 100	> 100	–	–	–	–	> 100	–	–	–	–	> 100	–	–
O=C(COc1ccc(Cl)cc1Cl)N/N=C/C=C/c1ccc([N+](=O)[O-])o1	> 100	> 100	61.8	5.26	> 100	59.8	91.5	> 100	–	–	–	–	6.65	–	–	–	–	> 100	–	–
Cn1c(=O)c2c(nc(NCCNc3nc4c(c(=O)n(C)c(=O)n4C)n3C)n2C)n(C)c1=O	> 100	> 100	> 100	> 100	> 100	> 100	> 100	> 100	–	–	–	–	> 100	–	–	–	–	–	–	–
O=C(NNC(=O)c1nsc2ccccc12)c1ccc(Cl)cc1	> 100	36.9	–	59.2	46.4	30.3	48.9	> 100	–	–	–	–	–	–	–	–	–	41.9	–	–
COc1ccc(C2C(C=O)C(N3CCN(C)CC3)=Nc3nc4ccccc4n32)cc1 (stereo unspecified)	91.1	41.5	48.2	31.5	59.7	39.2	40	41.8	–	–	–	–	26.3	–	–	–	–	54.5	–	–
Fc1c(F)c(C(F)(F)F)c(F)c(F)c1N/N=C/c1cn(Cc2ccccc2)c2ccccc12	27.9	43	78.9	36	41.9	41.5	66.4	81.7	–	–	–	–	> 100	–	–	–	–	42.1	–	–
N#C[S-].[Ce+3].c1cnc2c(c1)ccc1cccnc12.c1cnc2c(c1)ccc1cccnc12.c1cnc2c(c1)ccc1cccnc12	–	3.42	20.5	15.2	16.1	–	29.9	11.7	–	–	–	–	8.84	–	–	–	–	16	–	–
O=S(O)c1cc(Cl)cc(Cl)c1OCc1ccccc1	> 100	> 100	> 100	–	> 100	> 100	> 100	> 100	–	–	–	–	> 100	–	–	–	–	> 100	–	–
CC(=O)C1=C(O)CCC1=O	> 100	> 100	> 100	> 100	> 100	> 100	> 100	> 100	–	–	–	–	> 100	–	–	–	–	> 100	–	–
NC(CC(=O)O)(Cc1ccccc1)C(=O)O (stereo unspecified)	> 100	> 100	> 100	> 100	> 100	> 100	> 100	> 100	–	–	–	–	> 100	–	–	–	–	> 100	–	–
CNC(=O)Nc1ccccc1	> 100	> 100	> 100	> 100	> 100	> 100	> 100	> 100	–	–	–	–	> 100	–	–	–	–	> 100	–	–
